These results are taken from US8012956B2, “Tropane compounds” (Exelixis, Inc., priority 2007, dated 2011).

Where only a bound is given, the exact number is not on record here.

This assay addresses HSP90 (Homo sapiens, UniProt P07900). The assay can be described thus: HSP90 inhibition (HSP90 IC50). The format is biochemical.
The term IC50 denotes the midpoint of a concentration-inhibition curve. Read a low IC50 as higher potency. In the case of `COc1cccc(C(=O)N[C@H]2C[C@H]3CC[C@@H](C2)N3c2ccc(C(=O)Nc3cccc(C)c3)cn2)c1C` [6-[3-endo-({[2-methyl-3-(methyloxy)phenyl]carbonyl}amino)-8-azabicyclo[3.2.1]oct-8-yl]-N-(3-methylphenyl)pyridine-3-carboxamide], the concentration for half-maximal inhibition (IC50) lay within 2000 to 10000 nM.

In turn, `CC(=O)c1ccc(N2[C@@H]3CC[C@H]2C[C@@H](NC(=O)c2ccc(C(N)=O)c(NC4CCCCC4)c2)C3)nc1` [N4-[8-(5-acetylpyridin-2-yl)-8-azabicyclo[3.2.1]oct-3-endo-yl]-2-(cyctohexylamino)benzene-1,4-dicarboxamide] registered an IC50 of under 500 nM.

Consider `CCOCCC(=O)c1ccc(N2[C@@H]3CC[C@H]2C[C@@H](NC(=O)c2ccc(C(N)=O)c(NCC4CC4)c2)C3)nc1` [2-[(cyclopropylmethyl)amino]-N4-(8-{5-[3-(ethyloxy)propanoyl]pyridin-2-yl}-8-azabicyclo[3.2.1]oct-3-endo-yl)benzene-1,4-dicarboxamide], for which the IC50 was under 500 nM. `COc1cccc(C(=O)N[C@H]2C[C@H]3CC[C@@H](C2)N3c2ccc(C(=O)NC(C)C)cn2)c1C` [N-(1-methylethyl)-6-[3-endo-({[2-methyl-3-(methyloxy)phenyl]carbonyl}amino)-8-azabicyclo[3.2.1]oct-8-yl]pyridine-3-carboxamide] showed an IC50 of 1000 to 2000 nM. As for `CC(=O)c1ccc(N2[C@@H]3CC[C@H]2C[C@@H](NC(=O)c2ccc(C(N)=O)c(NC4CCOCC4)c2)C3)nc1` [N4-[8-(5-acetylpyridin-2-yl)-8-azabicyclo[3.2.1]oct-3-endo-yl]-2-(tetrahydro-2H-pyran-4-ylamino)benzene-1,4-dicarboxamide], the figure is under 500 nM.

Molecule “N-{8-[5-(cyclopropylcarbonyl)pyridin- 2-yl]-8-azabicyclo[3.2.1]oct-3-endo- yl}-5-[(1-ethylpropyl)amino]-2- methylbenzene-1,4-dicarboxamide” gave an IC50 of under 500 nM. In turn, `CC[C@H](C)Nc1cc(C(=O)NC2CC3CCC(C2)N3c2ccc(C(=O)C3CC3)cn2)ccc1C(N)=O` (stereo partly drawn) [N4-{8-[5-(cyclopropylcarbonyl)pyridin-2-yl]-8-azabicyclo[3.2.1]oct-3-endo-yl}-2-{[(1S)-1-methylpropyl]amino}benzene-1,4-dicarboxamide] displayed an IC50 of under 500 nM. In the case of `Cc1cc(C(N)=O)c(NC(C)C(F)F)cc1C(=O)N[C@H]1C[C@H]2CC[C@@H](C1)N2c1ccc(C(=O)C2CC2)cn1` (stereo partly drawn) [N-{8-[5-(cyclopropylcarbonyl)pyridin-2-yl]-8-azabicyclo[3.2.1]oct-3-endo-yl}-5-[(2,2-difluoro-1-methylethyl)amino]-2-methylbenzene-1,4-dicarboxamide], the IC50 is under 500 nM. For `Cc1c(N)cccc1C(=O)N[C@H]1C[C@H]2CC[C@@H](C1)N2c1ccc(C(=O)NCc2ccccc2)cn1` [6-(3-endo-{[(3-amino-2-methylphenyl)carbonyl]amino}-8-azabicyclo[3.2.1]oct-8-yl)-N-(phenylmethyl)pyridine-3-carboxamide] the value was 2000 to 10000 nM. For `C[C@H](NC(=O)c1ccc(N2C3CCC2CC(NC(=O)c2ccc(C(N)=O)c(Nc4ccncc4)c2)C3)nc1)c1ccc(N2CCN(C)CC2)cc1` (stereo partly drawn) the value was under 500 nM; for `CC(=O)c1ccc(N2[C@@H]3CC[C@H]2C[C@@H](NC(=O)c2cc(NC4CCC(C(F)(F)F)CC4)c(C(N)=O)cc2C)C3)nc1` (stereo partly drawn) [N-[8-(5-acetylpyridin-2-yl)-8-azabicyclo[3.2.1]oct-3-endo-yl]-2-methyl-5-{[4-(trifluoromethyl)cyclohexyl]amino} benzene-1,4-dicarboxamide], under 500 nM; for `COc1cccc(C(=O)N[C@H]2C[C@H]3CC[C@@H](C2)N3c2ccc(C(=O)NC3CCCCC3)cn2)c1C` [N-cyclohexyl-6-[3-endo-({[2-methyl-3-(methyloxy)phenyl]carbonyl}amino)-8-azabicyclo[3.2.1]oct-8-yl]pyridine-3-carboxamide], 500 to 999 nM. As for `CC(=O)c1ccc(N2[C@@H]3CC[C@H]2C[C@@H](NC(=O)c2ccc(C(N)=O)c(NCC4CCCO4)c2)C3)nc1` (stereo partly drawn) [N4-[8-(5-acetylpyridin-2-yl)-8-azabicyclo[3.2.1]oct-3-endo-yl]-2-[(tetrahydrofuran-2-ylmethyl)amino]benzene-1,4-dicarboxamide], the figure is under 500 nM. Molecule `COc1cccc(C(=O)N[C@H]2C[C@H]3CC[C@@H](C2)N3c2ccc(C(=O)NCc3cccc(C)c3)cn2)c1C` [6-[3-endo-({[2-methyl-3-(methyloxy)phenyl]carbonyl}amino)-8-azabicyclo[3.2.1]oct-8-yl]-N-[(3-methylphenyl)methyl]pyridine-3-carboxamide] displayed an IC50 of 2000 to 10000 nM. As for `COc1cccc(C(=O)N[C@H]2C[C@H]3CC[C@@H](C2)N3c2ccc(C(=O)NCc3cccc(F)c3)cn2)c1C` [N-[(3-fluorophenyl)methyl]-6-[3-endo-({[2-methyl-3-(methyloxy)phenyl]carbonyl}amino)-8-azabicyclo[3.2.1]oct-8-yl]pyridine-3-carboxamide], the figure is 1000 to 2000 nM; as for `CCC(=O)c1ccc(N2[C@@H]3CC[C@H]2C[C@@H](NC(=O)c2ccc(C(N)=O)c(NCC4CC4)c2)C3)nc1` [2-[(cyclopropylmethyl)amino]-N4-[8-(5-propanoylpyridin-2-yl)-8-azabicyclo[3.2.1]oct-3-endo-yl]benzene-1,4-dicarboxamide], under 500 nM. Molecule `CN1CCC(CCC(=O)c2ccc(N3[C@@H]4CC[C@H]3C[C@@H](NC(=O)c3ccc(C(N)=O)c(NCC5CC5)c3)C4)nc2)CC1` [2-[(cyclopropylmethyl)amino]-N4-(8-{5-[3-(1-methylpiperidin-4-yl)propanoyl]pyridin-2-yl}-8-azabicyclo[3.2.1]oct-3-endo-yl)benzene-1,4-dicarboxamide] had an IC50 of under 500 nM. `COc1cccc(C(=O)N[C@H]2C[C@H]3CC[C@@H](C2)N3c2ccc(C(N)=O)cn2)c1CCCCN(C)C` [6-(3-endo[({2-[4-(dimethylamino)butyl]-3-(methyloxy)phenyl}carbonyl)amino]-8-azabicyclo[3.2.1]oct-8-yl}pyridine-3-carboxamide]: the IC50 fell in the range of 1000 to 2000 nM. Take `COc1cccc(C(=O)N[C@H]2C[C@H]3CC[C@@H](C2)N3c2ccc(C(=O)NCc3ccc(N4CCCC4)cc3)cn2)c1C` [6-[3-endo-({[2-methyl-3-(methyloxy)phenyl]carbonyl}amino)-8-azabicyclo[3.2.1]oct-8-yl]-N-[(4-pyrrolidin-1-ylphenyl)methyl]pyridine-3-carboxamide]: the IC50 was 500 to 999 nM. For `NC(=O)c1ccc(C(=O)N[C@H]2C[C@H]3CC[C@@H](C2)N3c2ccc(C(=O)C3CC3)cn2)cc1NCC1CC1` [N4-{8-[5-(cyclopropylcarbonyl)pyridin-2-yl]-8-azabicyclo[3.2.1]oct-3-endo-yl}-2-[(cyclopropylmethyl)amino]benzene-1,4-dicarboxamide] the value was under 500 nM. For `COc1cccc(C(=O)N[C@H]2C[C@H]3CC[C@@H](C2)N3c2ccc(C(=O)NCCOC(C)C)cn2)c1C` [N-{2-[(1-methylethyl)oxy]ethyl}-6-(3-endo-({[2-methyl-3-(methyloxy)phenyl]carbonyl}amino)-8-azabicyclo[3.2.1]oct-8-yl]pyridine-3-carboxamide] the value was 2000 to 10000 nM; for `NC(=O)c1ccc(N2[C@@H]3CC[C@H]2C[C@@H](NC(=O)c2ccc(C(N)=O)c(OCCN4CCOCC4)c2)C3)nc1` [N4-{8-[5-(aminocarbonyl)pyridin-2-yl]-8-azabicyclo[3.2.1]oct-3-endo-yl}-2-[(2-morpholin-4-ylethyl)oxybenzene-1,4-dicarboxylate], 1000 to 2000 nM; for `COc1cccc(C(=O)N[C@H]2C[C@H]3CC[C@@H](C2)N3c2ccc(C(=O)NCc3cccc(OC)c3OC)cn2)c1C` [N-{[2,3-bis(methyloxy)phenyl]methyl}-6-[3-endo-({[2-methyl-3-(methyloxy)phenyl]carbonyl}amino)-8-azabicyclo[3.2.1]oct-8-yl]pyridine-3-carboxamide], 2000 to 10000 nM.

The molecule `COc1cccc(C(=O)NC2CC3CCC(C2)N3c2ccc(C(=O)NC(C)c3ccc(Br)cc3F)cn2)c1C` (stereo not drawn) [N-[1-(4-bromo-2-fluorophenyl)ethyl]-6-[3-endo-({[2-methyl-3-(methyloxy)phenyl]carbonyl}amino)-8-azabicyclo[3.2.1]oct-8-yl]pyridine-3-carboxamide] yielded an IC50 of 2000 to 10000 nM. As to `CCC(CC)Nc1cc(C(=O)NC2CC3CCC(C2)N3c2ccc(C(=O)N[C@H]3CCCNC3)cn2)ccc1C(N)=O` (stereo partly drawn) [2-[(1-ethylpropyl)amino]-N4-[8-(5-{[(3S)-piperidin-3-ylamino]carbonyl}pyridin-2-yl)-8-azabicyclo[3.2.1]oct-3-endo-yl]benzene-1,4-dicarboxamide], the IC50 was under 500 nM. For `COc1cccc(C(=O)N[C@H]2C[C@H]3CC[C@@H](C2)N3c2ccc(C(=O)NCc3cccnc3)cn2)c1C` [6-[3-endo-({[2-methyl-3-(methyloxy)phenyl]carbonyl}amino)-8-azabicyclo[3.2.1]oct-8-yl]-N-(pyridin-3-ylmethyl)pyridine-3-carboxamide], the IC50 is under 500 nM. In the case of `COc1cccc(C(=O)NC2CC3CCC(C2)N3c2ccc(C(=O)NCC3CCCO3)cn2)c1C` (stereo not drawn) [6-[3-endo-({[2-methyl-3-(methyloxy)phenyl]carbonyl}amino)-8-azabicyclo[3.2.1]oct-8-yl]-N-(tetrahydrofuran-2-ylmethyl)pyridine-3-carboxamide], the IC50 fell in the range of 2000 to 10000 nM. As for `Cc1cc(C(N)=O)c(N[C@H](C)C(C)(C)C)cc1C(=O)NC1CC2CCC(C1)N2c1ccc(C(=O)C2CC2)cn1` (stereo partly drawn) [N-{8-[5-(cyclopropylcarbonyl)pyridin-2-yl]-8-azabicyclo[3.2.1]oct-3-endo-yl}-2-methyl-5-{[(1R)-1,2,2-trimethylpropyl]amino}benzene-1,4-dicarboxamide], the figure is under 500 nM; as for “2-((cyclopropylmethyl)amino]-N4-{8- [5-({[(3R)-1-(1-methylethyl)pyrrolidin- 3-yl]amino}carbonyl)pyridin-2-yl]-8- azabicyclo[3.2.1]oct-3-endo- yl}benzene-1,4-dicarboxamide”, under 500 nM; as for `CC(C)[C@H](C)Nc1cc(C(=O)NC2CC3CCC(C2)N3c2ccc(C(=O)C3CC3)cn2)ccc1C(N)=O` (stereo partly drawn) [N4-{8-[5-(cyclopropylcarbonyl)pyridin-2-yl]-8-azabicyclo[3.2.1]oct-3-endo-yl}-2-{[(1S)-1,2-dimethylpropyl]amino}benzene-1,4-dicarboxamide], under 500 nM.
